Data on twelve molecules can be found in patent publication US20030211075A1 (priority 2001, published 2003).

The conditions of data set [1]: progressive disease before treatment; cited from earlier work.
Data set [2] deals with Mouse bEnd.3 endothelial cells. The experiment in a line: PS translocation and viability of endothelial cells exposed to H2O2. In kind it is cell-based. On the procedure:
Mouse bEnd.3 endothelial cells were seeded at an initial density of 50,000 cells/well. Twenty-fours later cells were incubated with increasing concentrations of H2O2 (from 10 μM to 500 μM) for 1 hour at 37° C, or left untreated. At the end of the incubation, cells were washed 3 times with PBS containing 0.2% gelatin and fixed with 0.25% glutaraldehyde. Identical wells were either stained with anti-PS IgM or trypsinized and evaluated for viability by the Trypan Blue exclusion test. For the anti-PS staining, after blocking with 2% gelatin for 10 min., cells were incubated with 2 μg/ml of anti-PS antibody, followed by detection with anti-mouse IgM-HRP conjugate.

Data set [3] concerns L540 human Hodgkin's disease tumors. The data set can be described thus: L540 tumors, immunoglobulin-tTF conjugate with etoposide. As to conditions: mouse, in vivo. On the procedure:
The tumor test systems were: i) L540 human Hodgkin's disease tumors growing in SCID mice; ii) C1300 Muγ (interferon-secreting) neuroblastoma growing in nu/nu mice; iii) H460 human non-small cell lung carcinoma growing in nu/nu mice. To establish solid tumors, 1.5×10^7 tumor cells were injected subcutaneously into the right anterior flank of SCID or BALB/c nu/nu mice (Charles River Labs., Wilmingham, Mass.). When the tumors had grown to various diameters, mice were assigned to different experimental groups, each containing 4 to 9 mice.
Mice bearing L540 human Hodgkin's disease tumors were treated with a complex of tTF219 and a bispecific antibody together with the anti-cancer drug, etoposide, at a conventional dose.

The test system of data set [4] is HT29 human colorectal carcinoma. The data set can be described thus: HT29 xenograft, tumor growth and necrosis after tTF constructs and Factor VIIa. In kind it is in vivo, mouse. As to conditions: mouse, in vivo, iv.
The conditions of data set [5]: cited from earlier work.
A short description of data set [6]: Toxicity to mice of agents given separately. As to conditions: mouse, in vivo.
In another data set the target is human endoglin (human) (UniProt P17813). The data set can be described thus: in vivo localization, human/SCID animal with human skin graft containing a tumor, overnight.
human endoglin (human), sequence (P17813 26-658): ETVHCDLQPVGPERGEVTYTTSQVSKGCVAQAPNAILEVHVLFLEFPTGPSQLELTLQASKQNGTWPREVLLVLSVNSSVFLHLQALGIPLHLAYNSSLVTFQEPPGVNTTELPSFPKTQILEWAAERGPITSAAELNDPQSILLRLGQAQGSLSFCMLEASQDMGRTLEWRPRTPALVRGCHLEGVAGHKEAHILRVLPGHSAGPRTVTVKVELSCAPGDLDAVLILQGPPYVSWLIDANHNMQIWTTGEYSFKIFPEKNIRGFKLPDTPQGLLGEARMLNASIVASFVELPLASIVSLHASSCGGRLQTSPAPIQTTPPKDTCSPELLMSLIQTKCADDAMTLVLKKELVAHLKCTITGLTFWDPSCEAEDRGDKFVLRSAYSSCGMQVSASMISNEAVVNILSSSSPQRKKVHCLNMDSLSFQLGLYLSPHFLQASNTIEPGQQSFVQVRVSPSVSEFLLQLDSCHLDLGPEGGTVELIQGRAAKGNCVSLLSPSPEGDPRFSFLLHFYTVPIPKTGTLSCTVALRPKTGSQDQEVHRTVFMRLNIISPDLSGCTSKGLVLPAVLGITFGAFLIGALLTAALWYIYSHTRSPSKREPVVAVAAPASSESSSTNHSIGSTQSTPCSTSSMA
The next data set deals with HUVEC cells. The data set can be described thus: FACS analysis of tissue factor expression on endothelial cells. The format is cell-based, human. As to conditions: TNFα 500 U/ml, LPS 10 μg/ml, VEGF 1 nM, 6 h. On the procedure:
To analyze tissue factor expression on the surface of endothelial cells, HUVEC cells were incubated with TNFα (500 U/ml), LPS (10 μg/ml) or vascular endothelial growth factor (VEGF, 1 nM) alone or in combination for 6 h at 37°. Cells were then detached and stained for surface expression of human tissue factor with a sheep-anti-human tissue factor antibody (Haemochrom. Essen. Germany) and an appropriate FITC-conjugated secondary antibody. Fluorescent cells were detected on a flow cytometer (Becton Dickinson, San Jose, Calif.).
A general note: Flow cytometry measures light scatter and fluorescence of single cells or particles in a stream.

Another data set concerns VCAM-1. The experiment in a line: FACS for upregulation of VCAM-1 on endothelial cells. In kind it is cell-based, mouse. On the procedure: (§1) Mouse endothelial cells were seeded in 48 well tissue culture plates and allowed to adhere overnight. Cells were stimulated with TNFα at the following concentrations: 500 U/ml; 100 U/ml; 20 U/ml; 4 U/ml; 0.8 U/ml; 0.16 U/ml; and with medium only.
Endothelial cells were then investigated for upregulation of the adhesion molecule VCAM-1 by fluorescence activated cell stain (FACS). To this end, cells were stained with an antibody against murine VCAM-1, followed by an appropriate FITC-conjugated secondary antibody. Fluorescent cells were detected on a flow cytometer (Becton Dickinson, San Jose, Calif.).

The next data set deals with Mouse endothelial cells. The data set can be described thus: Cell based two stage coagulation assay after TNFα. On the procedure:
as §1
Endothelial cells were also tested for coagulant activity in a cell based two stage coagulation assay. After incubation with TNFα, cells were washed and incubated with coagulation factor mix (0.5 μg/ml factor VIIa in a mix containing 2.8 μg/ml factor IX, 3.4 μg/ml factor X, 50 μM phospholipids, in calcium buffer). The supernatant of wells was transferred into a 96 well ELISA plate. Substrate S2765 was added and Factor Xa generation measured.

For data set [7] the following is noted: in vivo; cited from earlier work.
The target of data set [8] is T1, recombinant human VEGF (VEGF165) (human, UniProt P15692-4 27-191).
T1 construct: Dimeric VEGF seen at about 42 kd on blots; also called huVEGF; free VEGF
T1 sequence (P15692 other isoform, or with tags, fused parts or gaps limits assumed): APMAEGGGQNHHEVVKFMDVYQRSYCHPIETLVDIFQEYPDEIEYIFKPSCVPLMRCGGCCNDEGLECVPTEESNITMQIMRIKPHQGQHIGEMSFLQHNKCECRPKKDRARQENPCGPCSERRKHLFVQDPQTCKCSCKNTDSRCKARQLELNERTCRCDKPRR
The data set can be described thus: competition ELISA, 1 nM VEGF on VEGFR1 (Flt-1/Fc) wells, 100 fold molar excess of 2C3. A general note: ELISA stands for enzyme-linked immunosorbent assay.

In data set [9] the target is T1, recombinant human VEGF (VEGF165). The experiment in a line: competition ELISA, 1 nM VEGF on VEGFR1 (Flt-1/Fc) wells, 1000 fold molar excess of 2C3.
The test system of data set [10] is IL-1α-stimulated bEnd.3 cells. The experiment in a line: Chromogenic assay of Factor Xa formation induced by cell-bound coaguligand. In kind it is cell-based, mouse. As to conditions: 10 μg per ml Annexin V. On the procedure: The ability of Annexin V to affect Factor Xa formation induced by coaguligand was determined by a chromogenic assay. […] Annexin V was added at concentrations ranging from 0.1 to 10 μg/ml and cells were incubated for 30 min, before addition of diluted Proplex T. The amount of Factor Xa generated in the presence or absence of Annexin V was determined. Each treatment was performed in duplicate and repeated at least twice.

Data set [11] relates to L540 Hodgkin-bearing SCID mice. The experiment in a line: Annexin V inhibition of coaguligand-induced thrombosis in vivo. The arrangement: species or system mouse. On the procedure:
The ability of Annexin V to inhibit coaguligand-induced thrombosis in vivo was examined in L540 Hodgkin-bearing SCID mice.
Four hours after the last injection mice were anesthetized and perfused with heparinized saline. Tumors were removed, fixed with 4% formalin, paraffin-embedded and stained with hematoxylene-eosin. The number of thrombosed and non-thrombosed blood vessels were counted and the percentage of thrombosis was calculated.

Numbering of substitutions follows the chain as printed. Names and notes keep the numbering of the source.

Regarding `NC(=O)c1nnn(Cc2cc(Cl)c(C(=O)c3ccc(Cl)cc3)c(Cl)c2)c1N` [CAI, carboxyamidotriazole], in data set [1], the “disease stabilization, share of cancer patients” value is listed as 49%.
The cell viability is a read-out of living cells in per cent, often relative to untreated cells. Read a low cell viability as a greater loss of cells. In the case of `OO` [H2O2], in [2] (H2O2 as low as 20 μM), the “cells with PS at the cell surface” value is “about 50%”. Also, in data set [2] (H2O2 higher than 100 μM, 1 hour), the “cells with PS translocation” value is given as around 90%. Moreover, the cell viability in data set [2] (low levels of H2O2 (lower than 100 μM), identical to untreated cells) is recorded as 95%.
Regarding `COc1cc([C@@H]2c3cc4c(cc3[C@@H](O[C@@H]3O[C@@H]5CO[C@@H](C)O[C@H]5[C@H](O)[C@H]3O)[C@H]3COC(=O)[C@H]23)OCO4)cc(OC)c1O` [etoposide], in [3], the “average tumor volume, day 14” value is 1400 mm^3.
Consider “Factor VIIa: activated coagulation Factor VII, recombinant human”, for which the “average area of necrosis in tumor sections” value in [4] is recorded as “some necrosis”. For the same molecule, the half-life in vivo result in [5] is “approximately two hours”. The “toxicity when given separately” value in data set [6] is listed as “practically non-toxic to mice”.
As to TEC-11 anti-human endoglin antibody, in the data set with human endoglin (human), the % of blood vessels in the tumor periphery to which the antibody localized was 84% and the % of blood vessels throughout the tumor to which the antibody localized was 46%.
Turning to TNFα, the “tissue factor expression on the surface of HUVEC” value in the data set on HUVEC cells was “upregulated tissue factor expression”. Moreover, the “TNFα required for measurable increase of VCAM-1 expression” value in the data set with VCAM-1 worked out at 20 U/ml. In the data set on Mouse endothelial cells, the “TNFα at which an increase over negative control was detected in the coagulation assay” value is 0,16 U/ml and the “dose for procoagulant effect, fold lower than for VCAM-1 increase” value came to 125 fold.
VEGF: the “tissue factor expression on the surface of HUVEC” value in the data set on HUVEC cells is on record as “upregulated tissue factor expression”.
On to monophosphoryl lipid A [MPL], for which the “dose known to be safe for human use” value in data set [7] is given as 100 μg/m^2.

B1: 2C3 anti-VEGF antibody (antibody, V domains shown)
VH: QVQLQESGPELVKPGASVKMSCKASGYTFTSYVFHWVKQKPGQGLEWIGYINPYNDVTKYNEKFKGKATLTSDKSSSTAYMELSSLTSEDSAVYYCASYYGSSYGYYAMDDWGQGTTVTVSS
VL: DIQLTQSPASLSVSAGEKVTMSCKSSQSLLNSGNQKNYLAWYQQKPGQPPKLLIHGASTRESGVPDRFTGSGSGTDFTLTISSVQAEDLAVYYCQNDYSYPLTFGAGTKLELKR
On to B1, for which the figures for the “% of VEGF bound to VEGFR1-coated wells relative to the amount bound without 2C3” value in data set [8] and in data set [9] were 92% and 105%, respectively.

B2: tTF219 (G164A): tTF219 with amino acid 164 (Gly) replaced by Ala (protein)
chain: GSGTTNTVAAYNLTWKSTNFKTILEWEPKPVNQVYTVQISTKSGDWKSKCFYTTDTECDLTDEIVKDVKQTYLARVFSYPAGNVESTGSAGEPLYENSPEFTPYLETNLGQPTIQSFEQVGTKVNVTVEDERTLVRRNNTFLSLRDVFGKDLIYTLYYWKSSSSAKKTAKTNTNEFLIDVDKGENYCFSVQAVIPSRTVNRKSTDSPVECMGQEKGEFRE
On to B2, for which, in data set [4], the “average area of necrosis in tumor sections” value is given as “some necrosis”. For the same molecule, in data set [6], the “toxicity when given separately” value was “practically non-toxic to mice”.

B3: tTF219 (W158R) (protein)
chain: B2 chain with W159R, A165G
B3: the “toxicity when given separately” value in [6] is “practically non-toxic to mice”.

B4: Annexin V: protein that binds to PS with high affinity (protein, UniProt P08758 2-320, looked up)
Annexin A5: AQVLRGTVTDFPGFDERADAETLRKAMKGLGTDEESILTLLTSRSNAQRQEISAAFKTLFGRDLLDDLKSELTGKFEKLIVALMKPSRLYDAYELKHALKGAGTNEKVLTEIIASRTPEELRAIKQVYEEEYGSSLEDDVVGDTSGYYQRMLVVLLQANRDPDAGIDEAQVEQDAQALFQAGELKWGTDEEKFITIFGTRSVSHLRKVFDKYMTISGFQIEETIDRETSGNLEQLLLAVVKSIRSIPAYLAETLYYAMKGAGTDDHTLIRVMVSRSEIDLFNIRKEFRKNFATSLYSMIKGDTSGDYKKALLLLCGEDD
Regarding B4, in [10], the “inhibition of factor Xa production” value turned out to be 58%. Also, the “coaguligand-induced thrombosis and changes in tumor cell morphology after Annexin V pre-treatment” value in [11] (100 μg Annexin V 2 hours before 40 μg anti-VCAM-1•tTF) is given as “completely abolished”. Moreover, the tumor morphology result in [11] (100 μg Annexin V alone) is reported as “did not alter tumor morphology”.
